Reference: publication PMC6886798, “Expression of myeloid Src-family kinases is associated with poor prognosis in AML and influences Flt3-ITD kinase inhibitor acquired resistance” (PLoS ONE, 2019)

How the values were obtained:
Assay in all cases: KINOMEscan
Format in all cases: binding
Settings in all cases: 1.0 µM
[1] = target: T1, AKT2 (Homo sapiens, UniProt P31751)
T1 construct: purchased Eurofins/DiscoverX KINOMEscan scanMAX
Description: (§1) Kinase retention to the immobilized ligand is then measured using quantitative real-time PCR for each kinase-specific DNA barcode.

[2] = target: T2, AMPK-alpha2 (Homo sapiens, UniProt P54646)
T2 construct: purchased Eurofins/DiscoverX KINOMEscan scanMAX
Description: as §1

[3] = target: T3, ASK2 (Homo sapiens, UniProt O95382)
T3 construct: purchased Eurofins/DiscoverX KINOMEscan scanMAX
T3 sequence (O95382 whole entry): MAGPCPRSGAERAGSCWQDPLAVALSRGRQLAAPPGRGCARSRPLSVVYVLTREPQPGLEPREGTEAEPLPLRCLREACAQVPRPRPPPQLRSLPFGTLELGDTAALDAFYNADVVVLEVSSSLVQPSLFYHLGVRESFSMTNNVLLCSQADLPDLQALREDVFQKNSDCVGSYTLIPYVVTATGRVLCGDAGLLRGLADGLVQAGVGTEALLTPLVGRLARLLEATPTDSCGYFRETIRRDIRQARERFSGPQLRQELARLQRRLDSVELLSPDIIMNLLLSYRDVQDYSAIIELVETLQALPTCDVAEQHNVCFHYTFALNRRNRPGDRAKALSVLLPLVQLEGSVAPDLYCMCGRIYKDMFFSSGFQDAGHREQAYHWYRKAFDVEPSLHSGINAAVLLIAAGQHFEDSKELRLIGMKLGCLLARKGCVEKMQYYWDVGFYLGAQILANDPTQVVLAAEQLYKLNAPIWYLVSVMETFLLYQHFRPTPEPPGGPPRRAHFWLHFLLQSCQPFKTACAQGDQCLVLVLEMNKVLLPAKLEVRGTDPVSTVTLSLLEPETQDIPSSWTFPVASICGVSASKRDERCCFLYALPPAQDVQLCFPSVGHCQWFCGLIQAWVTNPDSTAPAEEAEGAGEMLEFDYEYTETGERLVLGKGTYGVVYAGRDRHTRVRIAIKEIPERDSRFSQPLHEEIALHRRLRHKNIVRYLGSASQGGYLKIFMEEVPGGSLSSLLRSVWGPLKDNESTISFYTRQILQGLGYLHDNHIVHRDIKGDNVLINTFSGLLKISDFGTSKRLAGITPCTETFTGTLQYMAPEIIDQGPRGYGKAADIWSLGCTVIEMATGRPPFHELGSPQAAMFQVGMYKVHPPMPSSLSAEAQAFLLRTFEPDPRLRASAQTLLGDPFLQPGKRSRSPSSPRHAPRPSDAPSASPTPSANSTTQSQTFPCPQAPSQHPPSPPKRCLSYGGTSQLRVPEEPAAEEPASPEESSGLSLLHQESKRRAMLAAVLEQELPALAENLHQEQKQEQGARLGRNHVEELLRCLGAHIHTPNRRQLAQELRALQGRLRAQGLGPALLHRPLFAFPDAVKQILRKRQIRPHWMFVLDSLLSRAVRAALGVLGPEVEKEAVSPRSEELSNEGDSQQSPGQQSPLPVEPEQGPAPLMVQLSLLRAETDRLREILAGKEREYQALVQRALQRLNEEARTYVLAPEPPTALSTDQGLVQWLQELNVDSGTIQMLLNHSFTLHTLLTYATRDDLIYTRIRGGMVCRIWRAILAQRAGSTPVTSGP
Description: as §1

[4] = target: T4, BMPR2 (Homo sapiens, UniProt Q13873)
T4 construct: purchased Eurofins/DiscoverX KINOMEscan scanMAX
Description: as §1

[5] = target: T5, CAMK1D (Homo sapiens, UniProt Q8IU85)
T5 construct: purchased Eurofins/DiscoverX KINOMEscan scanMAX
Description: as §1

[6] = target: T6, CAMK2A (Homo sapiens, UniProt Q9UQM7)
T6 construct: purchased Eurofins/DiscoverX KINOMEscan scanMAX
Description: as §1

[7] = target: T7, CDC2L1 (Homo sapiens, UniProt P21127)
T7 construct: purchased Eurofins/DiscoverX KINOMEscan scanMAX
Description: as §1

[8] = target: T8, CDKL2 (Homo sapiens, UniProt Q92772)
T8 construct: purchased Eurofins/DiscoverX KINOMEscan scanMAX
Description: as §1

[9] = target: T9, CIT (Homo sapiens, UniProt O14578)
T9 construct: purchased Eurofins/DiscoverX KINOMEscan scanMAX
Description: as §1

[10] = target: T10, CLK2 (Homo sapiens, UniProt P49760)
T10 construct: purchased Eurofins/DiscoverX KINOMEscan scanMAX
Description: as §1

[11] = target: T11, DMPK (Homo sapiens, UniProt Q09013)
T11 construct: purchased Eurofins/DiscoverX KINOMEscan scanMAX
T11 sequence (Q09013 whole entry): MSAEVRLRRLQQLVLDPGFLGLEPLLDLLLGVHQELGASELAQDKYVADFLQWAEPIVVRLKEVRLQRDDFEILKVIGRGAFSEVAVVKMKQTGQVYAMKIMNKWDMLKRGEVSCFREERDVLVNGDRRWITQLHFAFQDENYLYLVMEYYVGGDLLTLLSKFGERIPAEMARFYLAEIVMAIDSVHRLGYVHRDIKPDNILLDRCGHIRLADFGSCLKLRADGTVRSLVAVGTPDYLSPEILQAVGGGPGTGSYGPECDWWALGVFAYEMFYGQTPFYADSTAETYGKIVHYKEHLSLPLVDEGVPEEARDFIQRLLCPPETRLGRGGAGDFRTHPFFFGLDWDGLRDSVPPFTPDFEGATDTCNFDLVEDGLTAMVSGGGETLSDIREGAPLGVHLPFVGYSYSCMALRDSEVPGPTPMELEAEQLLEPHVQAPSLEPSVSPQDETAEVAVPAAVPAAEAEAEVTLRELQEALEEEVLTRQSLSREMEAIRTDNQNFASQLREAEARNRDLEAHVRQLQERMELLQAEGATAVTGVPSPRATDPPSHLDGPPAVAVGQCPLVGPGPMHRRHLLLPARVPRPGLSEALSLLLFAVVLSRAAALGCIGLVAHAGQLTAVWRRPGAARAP
Description: as §1

[12] = target: T12, DRAK2 (Homo sapiens, UniProt O94768)
T12 construct: purchased Eurofins/DiscoverX KINOMEscan scanMAX
Description: as §1

[13] = target: T13, DYRK2 (Homo sapiens, UniProt Q92630)
T13 construct: purchased Eurofins/DiscoverX KINOMEscan scanMAX
Description: as §1

[14] = target: T14, EPHB1 (Homo sapiens, UniProt P54762)
T14 construct: purchased Eurofins/DiscoverX KINOMEscan scanMAX
Description: as §1

[15] = target: T15, EPHB3 (Homo sapiens, UniProt P54753)
T15 construct: purchased Eurofins/DiscoverX KINOMEscan scanMAX
Description: as §1

[16] = target: T16, ERBB3 (Homo sapiens, UniProt P21860)
T16 construct: purchased Eurofins/DiscoverX KINOMEscan scanMAX
Description: as §1

[17] = target: T17, ERN1 (Homo sapiens, UniProt O75460)
T17 construct: purchased Eurofins/DiscoverX KINOMEscan scanMAX
Description: as §1

[18] = target: T18, FER (Homo sapiens, UniProt P16591)
T18 construct: purchased Eurofins/DiscoverX KINOMEscan scanMAX
Description: as §1

[19] = target: T19, FLT3-autoinhibited (Homo sapiens, UniProt P36888)
T19 construct: purchased Eurofins/DiscoverX KINOMEscan scanMAX
Description: as §1

[20] = target: T20, HIPK4 (Homo sapiens, UniProt Q8NE63)
T20 construct: purchased Eurofins/DiscoverX KINOMEscan scanMAX
Description: as §1

[21] = target: T21, HPK1 (Homo sapiens, UniProt Q92918)
T21 construct: purchased Eurofins/DiscoverX KINOMEscan scanMAX
T21 sequence (Q92918 whole entry): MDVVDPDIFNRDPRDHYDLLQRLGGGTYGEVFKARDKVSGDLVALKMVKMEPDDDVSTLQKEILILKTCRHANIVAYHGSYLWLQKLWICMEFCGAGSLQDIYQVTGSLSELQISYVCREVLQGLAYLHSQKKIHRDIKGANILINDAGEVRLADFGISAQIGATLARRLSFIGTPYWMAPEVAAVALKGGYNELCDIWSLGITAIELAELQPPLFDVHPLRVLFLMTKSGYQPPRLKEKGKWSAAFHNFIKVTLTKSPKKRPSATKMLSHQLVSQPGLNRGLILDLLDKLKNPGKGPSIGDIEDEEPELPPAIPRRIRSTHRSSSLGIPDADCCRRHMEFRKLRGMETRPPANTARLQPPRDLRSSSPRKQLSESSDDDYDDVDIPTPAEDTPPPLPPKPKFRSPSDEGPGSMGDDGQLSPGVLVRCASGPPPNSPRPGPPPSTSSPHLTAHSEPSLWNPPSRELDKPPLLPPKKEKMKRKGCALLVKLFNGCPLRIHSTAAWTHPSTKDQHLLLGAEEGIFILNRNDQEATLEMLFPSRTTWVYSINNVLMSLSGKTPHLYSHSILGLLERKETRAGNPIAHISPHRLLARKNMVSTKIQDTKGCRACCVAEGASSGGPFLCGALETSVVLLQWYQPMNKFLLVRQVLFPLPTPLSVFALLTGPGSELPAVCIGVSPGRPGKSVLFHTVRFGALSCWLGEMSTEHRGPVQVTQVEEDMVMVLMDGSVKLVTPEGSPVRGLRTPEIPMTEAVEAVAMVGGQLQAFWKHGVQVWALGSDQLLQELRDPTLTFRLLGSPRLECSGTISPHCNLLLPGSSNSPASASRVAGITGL
Description: as §1

[22] = target: T22, IRAK4 (Homo sapiens, UniProt Q9NWZ3)
T22 construct: purchased Eurofins/DiscoverX KINOMEscan scanMAX
T22 sequence (Q9NWZ3 whole entry): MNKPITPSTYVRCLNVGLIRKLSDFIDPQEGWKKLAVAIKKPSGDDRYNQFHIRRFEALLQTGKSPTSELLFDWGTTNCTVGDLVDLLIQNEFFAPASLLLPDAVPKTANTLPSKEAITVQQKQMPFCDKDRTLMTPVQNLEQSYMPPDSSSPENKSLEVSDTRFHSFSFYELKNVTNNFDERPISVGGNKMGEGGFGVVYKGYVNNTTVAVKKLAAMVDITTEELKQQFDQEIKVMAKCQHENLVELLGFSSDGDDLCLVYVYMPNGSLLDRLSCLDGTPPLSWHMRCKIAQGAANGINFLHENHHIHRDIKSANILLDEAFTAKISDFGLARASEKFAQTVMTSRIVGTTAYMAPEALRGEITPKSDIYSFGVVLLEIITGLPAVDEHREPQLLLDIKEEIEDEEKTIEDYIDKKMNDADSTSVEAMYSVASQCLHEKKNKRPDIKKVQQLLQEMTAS
Description: as §1

[23] = target: T23, KIT(V559D,T670I) (Homo sapiens, UniProt P10721, T670I/V559D)
T23 construct: purchased Eurofins/DiscoverX KINOMEscan scanMAX
T23 sequence (P10721 26-976 V559D/T670I): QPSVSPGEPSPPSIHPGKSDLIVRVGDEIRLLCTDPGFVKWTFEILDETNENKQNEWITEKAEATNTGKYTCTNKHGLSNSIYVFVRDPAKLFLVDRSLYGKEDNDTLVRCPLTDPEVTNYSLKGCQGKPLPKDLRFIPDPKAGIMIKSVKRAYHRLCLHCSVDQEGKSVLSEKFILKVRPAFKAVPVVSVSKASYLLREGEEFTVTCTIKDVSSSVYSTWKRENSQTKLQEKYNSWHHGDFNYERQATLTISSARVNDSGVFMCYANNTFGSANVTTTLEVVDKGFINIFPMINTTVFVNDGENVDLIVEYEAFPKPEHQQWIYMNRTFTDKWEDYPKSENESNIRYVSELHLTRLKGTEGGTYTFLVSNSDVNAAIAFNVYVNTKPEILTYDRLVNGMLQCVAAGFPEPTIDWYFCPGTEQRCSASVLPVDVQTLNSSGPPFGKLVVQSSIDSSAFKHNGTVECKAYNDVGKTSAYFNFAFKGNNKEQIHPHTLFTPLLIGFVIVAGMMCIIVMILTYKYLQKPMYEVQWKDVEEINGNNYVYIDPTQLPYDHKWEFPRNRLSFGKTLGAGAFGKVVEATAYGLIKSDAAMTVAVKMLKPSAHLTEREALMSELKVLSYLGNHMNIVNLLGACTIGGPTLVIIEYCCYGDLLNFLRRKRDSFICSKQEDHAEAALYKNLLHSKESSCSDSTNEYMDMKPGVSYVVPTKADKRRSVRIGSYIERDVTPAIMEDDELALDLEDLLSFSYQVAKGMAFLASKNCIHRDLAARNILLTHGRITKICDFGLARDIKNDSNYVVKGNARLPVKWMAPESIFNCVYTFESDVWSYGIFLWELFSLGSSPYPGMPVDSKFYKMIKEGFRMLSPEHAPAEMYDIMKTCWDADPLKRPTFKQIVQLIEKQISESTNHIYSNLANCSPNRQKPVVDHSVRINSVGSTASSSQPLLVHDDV
Description: as §1

[24] = target: T24, KIT(V559D,V654A) (Homo sapiens, UniProt P10721, V559D/V654A)
T24 construct: purchased Eurofins/DiscoverX KINOMEscan scanMAX
T24 sequence (P10721 26-976 V559D/V654A): as the sequence (P10721 26-976 V559D/T670I) above, with V629A, I645T counted along it
Description: as §1

[25] = target: T25, KIT-autoinhibited (Homo sapiens, UniProt P10721)
T25 construct: purchased Eurofins/DiscoverX KINOMEscan scanMAX
T25 sequence (P10721 26-976): as the sequence (P10721 26-976 V559D/T670I) above, with D534V, I645T counted along it
Description: as §1

[26] = target: T26, LIMK1 (Homo sapiens, UniProt P53667)
T26 construct: purchased Eurofins/DiscoverX KINOMEscan scanMAX
Description: as §1

[27] = target: T27, MEK2 (Homo sapiens, UniProt P36507)
T27 construct: purchased Eurofins/DiscoverX KINOMEscan scanMAX
Description: as §1

[28] = target: T28, MINK (Homo sapiens, UniProt Q8N4C8)
T28 construct: purchased Eurofins/DiscoverX KINOMEscan scanMAX
Description: as §1

[29] = target: T29, MST1 (Homo sapiens, UniProt Q13043)
T29 construct: purchased Eurofins/DiscoverX KINOMEscan scanMAX
Description: as §1

[30] = target: T30, NDR1 (Homo sapiens, UniProt Q15208)
T30 construct: purchased Eurofins/DiscoverX KINOMEscan scanMAX
Description: as §1

[31] = target: T31, NEK9 (Homo sapiens, UniProt Q8TD19)
T31 construct: purchased Eurofins/DiscoverX KINOMEscan scanMAX
Description: as §1

[32] = target: T32, PDGFRA (Homo sapiens, UniProt P16234)
T32 construct: purchased Eurofins/DiscoverX KINOMEscan scanMAX
Description: as §1

[33] = target: T33, PFTAIRE2 (Homo sapiens, UniProt Q96Q40)
T33 construct: purchased Eurofins/DiscoverX KINOMEscan scanMAX
Description: as §1

[34] = target: T34, PIKFYVE (Homo sapiens, UniProt Q9Y2I7)
T34 construct: purchased Eurofins/DiscoverX KINOMEscan scanMAX
Description: as §1

[35] = target: T35, PRKG1 (Homo sapiens, UniProt Q13976)
T35 construct: purchased Eurofins/DiscoverX KINOMEscan scanMAX
T35 sequence (Q13976 whole entry): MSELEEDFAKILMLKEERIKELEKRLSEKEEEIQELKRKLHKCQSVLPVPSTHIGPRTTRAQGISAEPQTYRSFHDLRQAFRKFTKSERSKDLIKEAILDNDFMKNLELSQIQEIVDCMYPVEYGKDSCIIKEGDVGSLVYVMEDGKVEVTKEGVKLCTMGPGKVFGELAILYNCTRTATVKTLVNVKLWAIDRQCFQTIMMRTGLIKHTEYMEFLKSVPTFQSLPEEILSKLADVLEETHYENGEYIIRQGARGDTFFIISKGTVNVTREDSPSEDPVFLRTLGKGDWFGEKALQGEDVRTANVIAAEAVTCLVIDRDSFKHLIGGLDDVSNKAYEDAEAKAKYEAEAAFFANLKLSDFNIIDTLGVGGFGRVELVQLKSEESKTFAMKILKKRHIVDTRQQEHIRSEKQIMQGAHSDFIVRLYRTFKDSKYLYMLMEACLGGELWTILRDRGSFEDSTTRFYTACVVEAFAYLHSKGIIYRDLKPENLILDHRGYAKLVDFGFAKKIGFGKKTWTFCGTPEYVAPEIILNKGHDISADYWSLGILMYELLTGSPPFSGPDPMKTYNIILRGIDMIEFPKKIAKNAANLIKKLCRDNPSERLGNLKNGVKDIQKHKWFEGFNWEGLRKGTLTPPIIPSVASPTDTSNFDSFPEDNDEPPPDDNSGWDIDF
Description: as §1

[36] = target: T36, RPS6KA5(Kin.Dom.2-C-terminal) (Homo sapiens, UniProt O75582)
T36 construct: RPS6KA5(Kin.Dom.2-C-terminal); purchased Eurofins/DiscoverX KINOMEscan scanMAX
Description: as §1

[37] = target: T37, SRPK3 (Homo sapiens, UniProt Q9UPE1)
T37 construct: purchased Eurofins/DiscoverX KINOMEscan scanMAX
Description: as §1

[38] = target: T38, TBK1 (Homo sapiens, UniProt Q9UHD2)
T38 construct: purchased Eurofins/DiscoverX KINOMEscan scanMAX
Description: as §1

[39] = target: T39, TGFBR2 (Homo sapiens, UniProt P37173)
T39 construct: purchased Eurofins/DiscoverX KINOMEscan scanMAX
Description: as §1

[40] = target: T40, TYK2(JH1domain-catalytic) (Homo sapiens, UniProt P29597)
T40 construct: TYK2(JH1domain-catalytic); DNA tag (qPCR barcode); purchased Eurofins/DiscoverX KINOMEscan scanMAX
Description: as §1

[41] = target: T41, WEE1 (Homo sapiens, UniProt P30291)
T41 construct: DNA tag (qPCR barcode); purchased Eurofins/DiscoverX KINOMEscan scanMAX
Description: as §1

CN1CCN(C2CCC(n3cc(-c4ccc(Oc5ccccc5)cc4)c4c(N)ncnc43)CC2)CC1 (centres unmarked) [A-419259]
% Control [1]: 92% | % Control [2]: 42% | % Control [3]: 62% | % Control [4]: 97% | % Control [5]: 97% | % Control [6]: 88% | % Control [7]: 61% | % Control [8]: 70% | % Control [9]: 79% | % Control [10]: 100% | % Control [11]: 100% | % Control [12]: 93% | % Control [13]: 100% | % Control [14]: 96% | % Control [15]: 100% | % Control [16]: 0.2% | % Control [17]: 82% | % Control [18]: 100% | % Control [19]: 3.4% | % Control [20]: 63% | % Control [21]: 44% | % Control [22]: 90% | % Control [23]: 40% | % Control [24]: 18% | % Control [25]: 6.9% | % Control [26]: 31% | % Control [27]: 0.2% | % Control [28]: 30% | % Control [29]: 34% | % Control [30]: 68% | % Control [31]: 90% | % Control [32]: 1.1% | % Control [33]: 89% | % Control [34]: 78% | % Control [35]: 100% | % Control [36]: 96% | % Control [37]: 99% | % Control [38]: 100% | % Control [39]: 100% | % Control [40]: 100% | % Control [41]: 100%
